SMILES strings stand for the structures.

Sequence of Voltage-dependent L-type calcium channel subunit alpha-1C (Q13936 whole entry): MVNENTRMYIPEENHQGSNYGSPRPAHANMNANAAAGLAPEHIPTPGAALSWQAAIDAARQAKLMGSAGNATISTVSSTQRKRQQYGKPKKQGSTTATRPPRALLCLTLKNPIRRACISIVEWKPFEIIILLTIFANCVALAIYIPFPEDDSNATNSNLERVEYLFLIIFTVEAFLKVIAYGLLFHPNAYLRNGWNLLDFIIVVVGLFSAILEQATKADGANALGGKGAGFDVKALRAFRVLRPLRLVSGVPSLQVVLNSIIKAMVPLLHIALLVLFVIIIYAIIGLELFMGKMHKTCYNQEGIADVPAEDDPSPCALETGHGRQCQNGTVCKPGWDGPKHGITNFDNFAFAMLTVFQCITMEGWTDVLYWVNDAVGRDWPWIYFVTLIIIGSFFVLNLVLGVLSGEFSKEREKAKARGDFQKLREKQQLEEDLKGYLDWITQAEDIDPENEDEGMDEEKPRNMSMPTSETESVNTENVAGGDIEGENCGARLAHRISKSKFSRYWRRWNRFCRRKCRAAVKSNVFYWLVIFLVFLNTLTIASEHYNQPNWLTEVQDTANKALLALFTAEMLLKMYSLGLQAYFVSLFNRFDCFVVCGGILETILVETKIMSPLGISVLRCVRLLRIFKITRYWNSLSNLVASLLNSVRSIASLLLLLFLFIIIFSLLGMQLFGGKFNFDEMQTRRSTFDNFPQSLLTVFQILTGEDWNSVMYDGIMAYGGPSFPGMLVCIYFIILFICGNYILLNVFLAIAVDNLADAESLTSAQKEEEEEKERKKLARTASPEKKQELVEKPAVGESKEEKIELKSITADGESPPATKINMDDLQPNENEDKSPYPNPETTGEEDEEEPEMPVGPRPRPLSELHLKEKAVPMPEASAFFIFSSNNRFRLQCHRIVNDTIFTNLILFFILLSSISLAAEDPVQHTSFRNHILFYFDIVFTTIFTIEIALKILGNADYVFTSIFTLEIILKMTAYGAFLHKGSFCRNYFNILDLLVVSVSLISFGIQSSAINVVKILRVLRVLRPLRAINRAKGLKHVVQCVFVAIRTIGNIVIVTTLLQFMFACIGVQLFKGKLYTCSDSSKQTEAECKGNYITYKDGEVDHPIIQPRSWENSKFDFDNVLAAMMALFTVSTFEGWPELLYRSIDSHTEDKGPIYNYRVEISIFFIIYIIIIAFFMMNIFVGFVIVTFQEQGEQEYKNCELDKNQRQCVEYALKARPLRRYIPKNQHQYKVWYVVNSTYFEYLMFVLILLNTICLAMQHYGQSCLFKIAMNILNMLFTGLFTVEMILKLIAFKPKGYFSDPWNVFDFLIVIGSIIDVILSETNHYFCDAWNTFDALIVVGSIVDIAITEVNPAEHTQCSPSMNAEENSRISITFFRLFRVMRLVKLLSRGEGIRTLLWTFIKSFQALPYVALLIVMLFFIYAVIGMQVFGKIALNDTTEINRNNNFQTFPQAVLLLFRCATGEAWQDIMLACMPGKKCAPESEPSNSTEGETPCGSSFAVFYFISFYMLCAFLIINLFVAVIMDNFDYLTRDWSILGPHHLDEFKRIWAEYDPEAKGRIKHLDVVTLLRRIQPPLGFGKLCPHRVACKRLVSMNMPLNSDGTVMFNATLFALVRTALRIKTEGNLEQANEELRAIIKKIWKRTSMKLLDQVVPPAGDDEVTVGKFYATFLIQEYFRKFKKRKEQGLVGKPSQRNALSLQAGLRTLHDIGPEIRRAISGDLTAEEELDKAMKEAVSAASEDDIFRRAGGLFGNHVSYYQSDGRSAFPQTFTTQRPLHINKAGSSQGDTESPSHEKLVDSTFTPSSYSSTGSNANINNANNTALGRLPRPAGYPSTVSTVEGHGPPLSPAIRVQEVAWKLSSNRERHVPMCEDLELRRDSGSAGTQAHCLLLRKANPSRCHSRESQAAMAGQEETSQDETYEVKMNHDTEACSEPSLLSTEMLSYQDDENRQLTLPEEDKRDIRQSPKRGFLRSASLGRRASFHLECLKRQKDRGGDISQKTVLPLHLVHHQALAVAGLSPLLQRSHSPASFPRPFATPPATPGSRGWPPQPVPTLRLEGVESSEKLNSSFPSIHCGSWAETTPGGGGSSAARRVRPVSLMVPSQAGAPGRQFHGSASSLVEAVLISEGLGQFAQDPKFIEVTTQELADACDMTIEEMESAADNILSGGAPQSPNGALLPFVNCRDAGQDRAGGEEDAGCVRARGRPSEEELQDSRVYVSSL
Sequence of Cytochrome P450 2C9 (P11712 whole entry): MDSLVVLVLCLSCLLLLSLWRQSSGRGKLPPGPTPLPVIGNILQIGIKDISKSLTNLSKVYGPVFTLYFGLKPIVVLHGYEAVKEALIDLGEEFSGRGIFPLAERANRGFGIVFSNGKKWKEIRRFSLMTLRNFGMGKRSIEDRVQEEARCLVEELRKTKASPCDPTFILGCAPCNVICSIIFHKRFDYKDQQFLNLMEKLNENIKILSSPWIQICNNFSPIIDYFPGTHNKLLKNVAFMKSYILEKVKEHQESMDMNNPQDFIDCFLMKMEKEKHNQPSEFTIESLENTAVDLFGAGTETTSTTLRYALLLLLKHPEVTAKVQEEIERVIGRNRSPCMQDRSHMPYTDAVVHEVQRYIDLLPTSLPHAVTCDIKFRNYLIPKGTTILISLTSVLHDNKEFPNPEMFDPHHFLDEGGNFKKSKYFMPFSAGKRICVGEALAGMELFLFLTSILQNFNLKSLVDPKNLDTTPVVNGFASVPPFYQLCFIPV

One series deals with CHO. In words: Selectivity index, ratio of Ki for human OX2 receptor expressed on CHO cell membrane to Ki for Ile408-Val variant human OX1 receptor expressed on CHO cell membrane. It is filed as cell-based.
Consider `O=C(c1ccccc1-n1nccn1)N1CCC(F)(F)C(Oc2cccc(C(F)(F)F)n2)C1` (stereo unspecified), for which the Ratio Ki is 3.8.
Same read-out and setting: the value for `Cc1ccccc1C(=O)N1CCC(F)(F)C(Oc2ccc3ccccc3n2)C1` (racemic) was greater than 51; that for `O=C(c1ccnc2[nH]cnc12)N1CCC(F)(F)C(Oc2ccc3ccccc3n2)C1` (racemic) was greater than 65; that for `O=C(c1cccc2cncn12)N1CCC(F)(F)C(Oc2ccc3ccccc3n2)C1` (racemic) was greater than 40.
The same measure, in the same setting: the same measure for `O=C(c1ccccc1-n1nccn1)N1CCC(F)(F)C(Oc2ccc(C(F)(F)F)cn2)C1` (stereo unspecified): 33; for `O=C(c1cccn2cncc12)N1CCC(F)(F)C(Oc2ccc3ccccc3n2)C1` (racemic): greater than 439; for `O=C(c1ccccc1-n1nccn1)N1CCC(F)(F)C(Oc2ccccn2)C1` (stereo unspecified): 0.26.
The same measure, in the same setting: the same measure for `COc1cccc(C(=O)N2CCC(F)(F)C(Oc3ccc4ccccc4n3)C2)c1` (racemic): greater than 481; for `O=C(c1ccccc1-n1nccn1)N1CCC(F)(F)C(Oc2cc3ccccc3cn2)C1` (stereo unspecified): 6.4; for `O=C(c1ccccc1-n1nccn1)N1CCC(F)(F)C(Oc2nccc3ccccc23)C1` (stereo unspecified): 0.43.
Consider `COc1ccc(F)c(C(=O)N2CCC(F)(F)C(Oc3ccc4ccccc4n3)C2)c1` (racemic), for which the Ratio Ki stood at 476.
The same measure, in the same setting: the value for `O=C(c1ccccc1-c1ncccn1)N1CCC(F)(F)[C@@H](Oc2ccc3ccccc3n2)C1` was 156.
Still for that read-out and setting: the value for `COc1ccc(F)c(C(=O)N2CCC(F)(F)[C@@H](Oc3ccc4ccccc4n3)C2)c1F` was 1120.
Take `O=C(c1cccc2nccn12)N1CCC(F)(F)C(Oc2ccc3ccccc3n2)C1` (racemic): the Ratio Ki was greater than 6.
Still for that read-out and setting: the value for `O=C(c1cccc(-n2cccn2)c1)N1CCC(F)(F)[C@@H](Oc2ccc3ccccc3n2)C1` was 570.

The next series concerns the target Voltage-dependent L-type calcium channel subunit alpha-1C (Homo sapiens, UniProt Q13936). The experiment in a line: Inhibition of Cav1.2 (unknown origin).
In the case of `O=C(c1ccccc1-n1nccn1)N1CCC(F)(F)C(Oc2cccc(C(F)(F)F)n2)C1` (stereo unspecified), the “inhibition (INH)” value is on record as “Active”.
Take `Cc1ccccc1C(=O)N1CCC(F)(F)C(Oc2ccc3ccccc3n2)C1` (racemic): the “inhibition (INH)” value is listed as “Active”.
The same measure, in the same setting: the same measure for `O=C(c1ccccc1-n1nccn1)N1CCC(F)(F)C(Oc2ccc(C(F)(F)F)cn2)C1` (stereo unspecified): “Active”; for `O=C(c1ccccc1-n1nccn1)N1CCC(F)(F)C(Oc2ccccn2)C1` (stereo unspecified): “Active”; for `COc1cccc(C(=O)N2CCC(F)(F)C(Oc3ccc4ccccc4n3)C2)c1` (racemic): “Active”.
The same measure, in the same setting: the same measure for `O=C(c1ccccc1-n1nccn1)N1CCC(F)(F)C(Oc2cc3ccccc3cn2)C1` (stereo unspecified): “Active”.
On the same count and under the same terms, the same measure for `O=C(c1ccccc1-n1nccn1)N1CCC(F)(F)C(Oc2nccc3ccccc23)C1` (stereo unspecified): “Active”.
As to `COc1ccc(F)c(C(=O)N2CCC(F)(F)C(Oc3ccc4ccccc4n3)C2)c1` (racemic), the “inhibition (INH)” value is given as “Active”.
The same measure, in the same setting: the same measure for `COc1ccc(F)c(C(=O)N2CCC(F)(F)[C@@H](Oc3ccc4ccccc4n3)C2)c1F`: “Active”.

Test system in another series: not listed separately
In words: Displacement of (2S)-N-(2-phenylphenyl)-1-[2-[1-(tritritiomethyl)benzimidazol-2-yl]sulfanylacetyl]pyrrolidine-2-carboxamide from human OX1 receptor Ile408-Val mutant expressed on CHO cell membrane measured after 3 hrs by TopCount method. It is filed as cell membranes.
One may read the Ki as the equilibrium dissociation constant of an inhibitor or competing ligand from its target. Low readings indicate a stronger hold on the target, high ones a looser hold on the target. On to `O=C(c1ccccc1-n1nccn1)N1CCC(F)(F)C(Oc2cccc(C(F)(F)F)n2)C1` (stereo unspecified), for which the Ki was determined as 240 nM.
Still for that read-out and setting: the same measure for `Cc1ccccc1C(=O)N1CCC(F)(F)C(Oc2ccc3ccccc3n2)C1` (racemic): 52 nM; for `O=C(c1ccnc2[nH]cnc12)N1CCC(F)(F)C(Oc2ccc3ccccc3n2)C1` (racemic): 89 nM; for `O=C(c1cccc2cncn12)N1CCC(F)(F)C(Oc2ccc3ccccc3n2)C1` (racemic): 52 nM.
The same measure, in the same setting: the same measure for `O=C(c1ccccc1-n1nccn1)N1CCC(F)(F)C(Oc2ccc(C(F)(F)F)cn2)C1` (stereo unspecified): 14 nM; for `O=C(c1cccn2cncc12)N1CCC(F)(F)C(Oc2ccc3ccccc3n2)C1` (racemic): 2.9 nM; for `O=C(c1ccccc1-n1nccn1)N1CCC(F)(F)C(Oc2ccccn2)C1` (stereo unspecified): 4050 nM.
Turning to `COc1cccc(C(=O)N2CCC(F)(F)C(Oc3ccc4ccccc4n3)C2)c1` (racemic), the affinity, expressed as Ki, was 9.1 nM.
Same read-out and setting: the same measure for `O=C(c1ccccc1-n1nccn1)N1CCC(F)(F)C(Oc2cc3ccccc3cn2)C1` (stereo unspecified): 59 nM; for `O=C(c1ccccc1-n1nccn1)N1CCC(F)(F)C(Oc2nccc3ccccc23)C1` (stereo unspecified): 6.5 nM.
Still for that read-out and setting: the value for `COc1ccc(F)c(C(=O)N2CCC(F)(F)C(Oc3ccc4ccccc4n3)C2)c1` (racemic) was 3.4 nM; that for `O=C(c1ccccc1-c1ncccn1)N1CCC(F)(F)[C@@H](Oc2ccc3ccccc3n2)C1` was 1.8 nM.
Same read-out and setting: the same measure for `COc1ccc(F)c(C(=O)N2CCC(F)(F)[C@@H](Oc3ccc4ccccc4n3)C2)c1F`: 1.1 nM; for `O=C(c1cccc2nccn12)N1CCC(F)(F)C(Oc2ccc3ccccc3n2)C1` (racemic): 564 nM; for `O=C(c1cccc(-n2cccn2)c1)N1CCC(F)(F)[C@@H](Oc2ccc3ccccc3n2)C1`: 1.1 nM.

Another series concerns the target Cytochrome P450 2C9 (Homo sapiens, UniProt P11712). In words: Inhibition of CYP2C9 (unknown origin). It is filed as ADME.
In the case of `O=C(c1ccccc1-n1nccn1)N1CCC(F)(F)C(Oc2cccc(C(F)(F)F)n2)C1` (stereo unspecified), the “inhibition (INH)” value is recorded as “Active”.
Same read-out and setting: the value for `Cc1ccccc1C(=O)N1CCC(F)(F)C(Oc2ccc3ccccc3n2)C1` (racemic) was “Active”; that for `O=C(c1ccccc1-n1nccn1)N1CCC(F)(F)C(Oc2ccc(C(F)(F)F)cn2)C1` (stereo unspecified) was “Active”.
Same read-out and setting: the same measure for `O=C(c1ccccc1-n1nccn1)N1CCC(F)(F)C(Oc2ccccn2)C1` (stereo unspecified): “Active”; for `COc1cccc(C(=O)N2CCC(F)(F)C(Oc3ccc4ccccc4n3)C2)c1` (racemic): “Active”.
On the same count and under the same terms, the value for `O=C(c1ccccc1-n1nccn1)N1CCC(F)(F)C(Oc2cc3ccccc3cn2)C1` (stereo unspecified) was “Active”; that for `O=C(c1ccccc1-n1nccn1)N1CCC(F)(F)C(Oc2nccc3ccccc23)C1` (stereo unspecified) was “Active”.
In turn, `COc1ccc(F)c(C(=O)N2CCC(F)(F)C(Oc3ccc4ccccc4n3)C2)c1` (racemic) returned an INH of 10.8 µM.
`COc1ccc(F)c(C(=O)N2CCC(F)(F)[C@@H](Oc3ccc4ccccc4n3)C2)c1F` returned an INH of 10.8 µM.

Test system in another series: not listed separately
The experiment in a line: Solubility of the compound. It is filed as physicochemical.
On to `O=C(c1ccccc1-n1nccn1)N1CCC(F)(F)C(Oc2cccc(C(F)(F)F)n2)C1` (stereo unspecified), for which the solubility entry is reported as “Insoluble”.
The same measure, in the same setting: the same measure for `Cc1ccccc1C(=O)N1CCC(F)(F)C(Oc2ccc3ccccc3n2)C1` (racemic): “Insoluble”; for `O=C(c1ccccc1-n1nccn1)N1CCC(F)(F)C(Oc2ccc(C(F)(F)F)cn2)C1` (stereo unspecified): “Insoluble”.
For the compound `O=C(c1ccccc1-n1nccn1)N1CCC(F)(F)C(Oc2ccccn2)C1` (stereo unspecified), the solubility entry was “Insoluble”.
On the same count and under the same terms, the same measure for `COc1cccc(C(=O)N2CCC(F)(F)C(Oc3ccc4ccccc4n3)C2)c1` (racemic): “Insoluble”.
Still for that read-out and setting: the value for `O=C(c1ccccc1-n1nccn1)N1CCC(F)(F)C(Oc2cc3ccccc3cn2)C1` (stereo unspecified) was “Insoluble”; that for `O=C(c1ccccc1-n1nccn1)N1CCC(F)(F)C(Oc2nccc3ccccc23)C1` (stereo unspecified) was “Insoluble”; that for `COc1ccc(F)c(C(=O)N2CCC(F)(F)C(Oc3ccc4ccccc4n3)C2)c1` (racemic) was “Insoluble”.
The same measure, in the same setting: the value for `COc1ccc(F)c(C(=O)N2CCC(F)(F)[C@@H](Oc3ccc4ccccc4n3)C2)c1F` was “Insoluble”.

The target of a further series is Cytochrome P450 3A4 (Homo sapiens, UniProt P08684). In words: Inhibition of CYP3A4 (unknown origin). It is filed as ADME.
Sequence of Cytochrome P450 3A4 (P08684 whole entry): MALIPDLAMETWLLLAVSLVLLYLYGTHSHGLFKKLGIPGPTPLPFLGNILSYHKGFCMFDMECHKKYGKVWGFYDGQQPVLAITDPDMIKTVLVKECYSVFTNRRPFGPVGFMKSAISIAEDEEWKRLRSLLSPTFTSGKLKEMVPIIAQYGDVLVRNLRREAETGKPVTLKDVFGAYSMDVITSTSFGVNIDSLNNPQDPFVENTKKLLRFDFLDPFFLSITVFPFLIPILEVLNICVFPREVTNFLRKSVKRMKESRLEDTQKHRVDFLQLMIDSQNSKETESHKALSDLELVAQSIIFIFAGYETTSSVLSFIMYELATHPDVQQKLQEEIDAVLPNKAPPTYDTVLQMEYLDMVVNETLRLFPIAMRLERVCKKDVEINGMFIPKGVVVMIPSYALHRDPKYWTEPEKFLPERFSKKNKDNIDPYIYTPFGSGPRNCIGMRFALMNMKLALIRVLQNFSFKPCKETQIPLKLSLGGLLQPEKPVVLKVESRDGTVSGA
As to `O=C(c1ccccc1-n1nccn1)N1CCC(F)(F)C(Oc2cccc(C(F)(F)F)n2)C1` (stereo unspecified), the “inhibition (INH)” value is “Active”.
`Cc1ccccc1C(=O)N1CCC(F)(F)C(Oc2ccc3ccccc3n2)C1` (racemic): the “inhibition (INH)” value is “Active”.
Still for that read-out and setting: the value for `O=C(c1ccccc1-n1nccn1)N1CCC(F)(F)C(Oc2ccc(C(F)(F)F)cn2)C1` (stereo unspecified) was “Active”; that for `O=C(c1ccccc1-n1nccn1)N1CCC(F)(F)C(Oc2ccccn2)C1` (stereo unspecified) was “Active”.
Still for that read-out and setting: the value for `COc1cccc(C(=O)N2CCC(F)(F)C(Oc3ccc4ccccc4n3)C2)c1` (racemic) was “Active”; that for `O=C(c1ccccc1-n1nccn1)N1CCC(F)(F)C(Oc2cc3ccccc3cn2)C1` (stereo unspecified) was “Active”; that for `O=C(c1ccccc1-n1nccn1)N1CCC(F)(F)C(Oc2nccc3ccccc23)C1` (stereo unspecified) was “Active”.
Compound `COc1ccc(F)c(C(=O)N2CCC(F)(F)C(Oc3ccc4ccccc4n3)C2)c1` (racemic) showed an INH of 6.7 µM.
In turn, `COc1ccc(F)c(C(=O)N2CCC(F)(F)[C@@H](Oc3ccc4ccccc4n3)C2)c1F` yielded an INH of 6.7 µM.

Another series has as its target T1, Orexin receptor type 2 (Homo sapiens, UniProt O43614).
T1 sequence (O43614 whole entry): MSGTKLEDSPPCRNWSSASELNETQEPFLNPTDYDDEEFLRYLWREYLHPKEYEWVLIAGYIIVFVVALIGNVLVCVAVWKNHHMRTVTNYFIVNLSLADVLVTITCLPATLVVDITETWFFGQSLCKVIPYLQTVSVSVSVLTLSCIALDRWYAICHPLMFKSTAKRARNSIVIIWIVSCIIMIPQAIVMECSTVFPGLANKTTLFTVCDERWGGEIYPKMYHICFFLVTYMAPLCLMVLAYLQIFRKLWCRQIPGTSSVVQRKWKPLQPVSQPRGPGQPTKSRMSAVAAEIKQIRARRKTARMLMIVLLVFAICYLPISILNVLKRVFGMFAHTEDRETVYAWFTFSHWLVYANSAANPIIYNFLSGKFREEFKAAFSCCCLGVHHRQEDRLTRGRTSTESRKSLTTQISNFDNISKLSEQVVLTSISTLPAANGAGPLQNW
In words: Displacement of (2S)-N-(2-pyrrol-1-ylphenyl)-1-[2-[1-(tritritiomethyl)benzimidazol-2-yl]sulfanylacetyl]pyrrolidine-2-carboxamide from human OX2 receptor expressed on CHO cell membrane measured after 3 hrs by TopCount method. It is filed as cell membranes.
Take `O=C(c1ccccc1-n1nccn1)N1CCC(F)(F)C(Oc2cccc(C(F)(F)F)n2)C1` (stereo unspecified): affinity was put at a Ki of 907 nM.
On the same count and under the same terms, the value for `Cc1ccccc1C(=O)N1CCC(F)(F)C(Oc2ccc3ccccc3n2)C1` (racemic) was greater than 2630 nM; that for `O=C(c1ccnc2[nH]cnc12)N1CCC(F)(F)C(Oc2ccc3ccccc3n2)C1` (racemic) was greater than 5870 nM.
As to `O=C(c1cccc2cncn12)N1CCC(F)(F)C(Oc2ccc3ccccc3n2)C1` (racemic), the Ki is greater than 2100 nM.
`O=C(c1ccccc1-n1nccn1)N1CCC(F)(F)C(Oc2ccc(C(F)(F)F)cn2)C1` (stereo unspecified) had a Ki of 467 nM.
The same measure, in the same setting: the same measure for `O=C(c1cccn2cncc12)N1CCC(F)(F)C(Oc2ccc3ccccc3n2)C1` (racemic): greater than 12700 nM; for `O=C(c1ccccc1-n1nccn1)N1CCC(F)(F)C(Oc2ccccn2)C1` (stereo unspecified): 1040 nM; for `COc1cccc(C(=O)N2CCC(F)(F)C(Oc3ccc4ccccc4n3)C2)c1` (racemic): greater than 4380 nM.
Still for that read-out and setting: the value for `O=C(c1ccccc1-n1nccn1)N1CCC(F)(F)C(Oc2cc3ccccc3cn2)C1` (stereo unspecified) was 379 nM; that for `O=C(c1ccccc1-n1nccn1)N1CCC(F)(F)C(Oc2nccc3ccccc23)C1` (stereo unspecified) was 2.8 nM; that for `COc1ccc(F)c(C(=O)N2CCC(F)(F)C(Oc3ccc4ccccc4n3)C2)c1` (racemic) was 1620 nM.
Still for that read-out and setting: the same measure for `O=C(c1ccccc1-c1ncccn1)N1CCC(F)(F)[C@@H](Oc2ccc3ccccc3n2)C1`: 281 nM; for `COc1ccc(F)c(C(=O)N2CCC(F)(F)[C@@H](Oc3ccc4ccccc4n3)C2)c1F`: 1230 nM; for `O=C(c1cccc2nccn12)N1CCC(F)(F)C(Oc2ccc3ccccc3n2)C1` (racemic): greater than 3330 nM.
On to `O=C(c1cccc(-n2cccn2)c1)N1CCC(F)(F)[C@@H](Oc2ccc3ccccc3n2)C1`, for which the affinity corresponds to a Ki of 627 nM.

The record behind these values is ChEMBL document CHEMBL3867477 (Bioorg Med Chem Lett, 2016).
